Reference: PubChem BioAssay (NCI)
Where “and” joins values, the source holds several entries; their conditions need not be identical. Equal entries are not always repeated.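 Assay format: 96-well plates, 48-hour exposure. GI50 is the concentration that inhibits growth by half. At the TGI there is no net growth.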

Legend:
Experiment in all cases: DTP human tumour cell line panel, 48 h
A549 NSCLC = tested on: A549 NSCLC
LOX IMVI melanoma = tested on: LOX IMVI melanoma
HT29 colon = tested on: HT29 colon
DU-145 prostate = tested on: DU-145 prostate
CCRF-CEM leukemia = tested on: CCRF-CEM leukemia
UACC-257 melanoma = tested on: UACC-257 melanoma
TK-10 renal = tested on: TK-10 renal
SK-MEL-28 melanoma = tested on: SK-MEL-28 melanoma
RPMI-8226 leukemia = tested on: RPMI-8226 leukemia
786-0 renal = tested on: 786-0 renal

| SMILES | GI50 (A549 NSCLC) | TGI (A549 NSCLC) | GI50 (LOX IMVI melanoma) | TGI (LOX IMVI melanoma) | GI50 (HT29 colon) | TGI (HT29 colon) | GI50 (DU-145 prostate) | TGI (DU-145 prostate) | GI50 (CCRF-CEM leukemia) | TGI (CCRF-CEM leukemia) | GI50 (UACC-257 melanoma) | TGI (UACC-257 melanoma) | GI50 (TK-10 renal) | TGI (TK-10 renal) | GI50 (SK-MEL-28 melanoma) | TGI (SK-MEL-28 melanoma) | GI50 (RPMI-8226 leukemia) | TGI (RPMI-8226 leukemia) | GI50 (786-0 renal) | TGI (786-0 renal) |
| --- | --- | --- | --- | --- | --- | --- | --- | --- | --- | --- | --- | --- | --- | --- | --- | --- | --- | --- | --- | --- |
| Cc1cccc2c3c(sc12)C(c1ccc(Cl)cc1)C(C#N)=C(N)O3 (stereo unspecified) | 0.486 µM | 9.66 µM | 0.663 µM | 3.92 µM | 0.394 µM | 6.12 µM | 0.459 µM | 11.6 µM | 0.382 µM | 32.1 µM | 11.8 µM | 27.3 µM | 5.92 µM | 21.7 µM | 3.69 µM | 20.7 µM | 0.423 µM | 6.33 µM | 0.643 µM | 13.3 µM |
| N#CC1=C(/N=C/c2ccccc2)Oc2c(ccc3ccccc23)C1c1ccccc1 (stereo unspecified) | 0.95 µM | > 100 µM | 0.559 µM | > 100 µM | 0.37 µM | > 100 µM | 0.735 µM | > 64.3 µM | 0.462 µM | > 100 µM | > 100 µM | > 100 µM | 13.7 µM | > 100 µM | – | > 100 µM | 0.441 µM | > 100 µM | 0.546 µM | > 100 µM |
| COc1cc(/C=C/C(=O)c2cccc(-n3cc(-c4ccc(Cl)cc4)[nH]c3=O)c2)cc(OC)c1OC | 85.2 µM | > 100 µM | 1.72 µM | 3.2 µM | 2 µM | 3.71 µM | 4.53 µM | 27 µM | 5.43 µM | > 100 µM | 17.4 µM | 90.9 µM | 6.46 µM | 71.5 µM | 10.9 µM | 25.6 µM | 3.92 µM | > 100 µM | 2.14 µM | 5.39 µM |
| CC(C)(Br)C(=O)C(Br)Br | 11 µM | 37.3 µM and 41 µM | 3.09 µM | 16.8 µM and 7.13 µM | 6.16 µM | 24 µM and 11.8 µM | – | 70.6 µM | 2.72 µM | – | 5.21 µM | 22.4 µM and 9.43 µM | 4.95 µM | 23.5 µM and 9.15 µM | 4.93 µM | 22.1 µM and 9.12 µM | 2.31 µM and 1.14 µM | 6.29 µM and 6.22 µM | 4.85 µM | 26.9 µM and 8.99 µM |
| O=C(CC1(O)C(=O)N(Cc2ccccc2)c2ccccc21)c1ccc(C(=O)NCC2CCC3(CC2)OOC2(CCCCC2)OO3)cc1 (stereo unspecified) | 0.201 µM | 0.458 µM | 0.154 µM | 0.31 µM | 1.72 µM | 3.82 µM | 0.25 µM | 0.625 µM | 0.421 µM | 2.17 µM | 5.01 µM | 22.9 µM | 0.835 µM | 2.24 µM | 4.96 µM | 26.8 µM | 0.886 µM | 3.43 µM | 0.18 µM | 0.345 µM |
| O=C(/C=C/c1cccc(O)c1)c1cccc(-n2cc(-c3ccccc3)[nH]c2=O)c1 | 6.39 µM | 21.8 µM | 1.81 µM | 3.44 µM | 2.58 µM | > 20.6 µM | 3.15 µM | 10.3 µM | 3.1 µM | > 41.1 µM | 8.89 µM | 21.8 µM | 2.43 µM | 6.89 µM | 8.07 µM | 20.6 µM | 2.16 µM | 6.33 µM | 2.36 µM | – |
| O=C1OC(C(O)CO)C(O)=C1O (stereo unspecified) | 2510 µM and > 4270 µM | 6010 µM and > 6460 µM | 340 µM and 426 µM | 1000 µM and 1460 µM | 2000 µM and 1870 µM | 4070 µM and 3750 µM | 1610 µM and 1690 µM | 3040 µM and 3110 µM | 239 µM and 275 µM | 576 µM and 792 µM | 1870 µM and > 3610 µM | 3730 µM and > 5150 µM | 9040 µM and > 4840 µM | > 10000 µM | 2530 µM and > 10000 µM | 6230 µM and > 10000 µM | 1910 µM and 2400 µM | 4500 µM and 6610 µM | 1790 µM and > 4300 µM | 3290 µM and > 5710 µM |
